Experimental data taken from patent publication US11357786B2, “Synthetic disugar hydrocarbons as natural analogs to control microbial behaviors” (Syracuse University, priority 2014, dated 2022).
Entries after “also recorded” stand apart in the source; their conditions may differ.

Experiments:
Assay type in all cases: cell-based, Pseudomonas aeruginosa
[1] = test system: nonswarming P. aeruginosa mutant rhlA; experiment: Swarming motility of nonswarming rhlA mutant on soft agar (reactivation / agonist assay); conditions: for Reactivation of swarming motility of rhlA mutant: concentration not given; for Swarming reactivation of rhlA mutant: 110 μM in soft agar; for Concentration that suppresses reactivation of rhlA swarming by DβC: co-administered with 40 μM DβC
Method in brief: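 rhlA transposon mutant of PAO1 (3 μl, OD600 0.4–0.6) inoculated on M8 soft agar (0.2% glucose, 0.5% casamino acids, 1 mM MgSO4, 0.5% agar) with test compound to find swarming agonists. Incubated 12 h at 37 °C plus 12 h at room temperature; swarm area measured by weighing paper cut-outs of imaged swarms.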

PAO1 biofilm = experiment: Crystal violet based static biofilm inhibition assay, DSHs in LB media (Examples 2 and 4); conditions: for Anti-biofilm activity (biofilm inhibition): concentration not given; for Inhibition of PAO1 biofilm in presence of pili peptide PAO(128-144)ox: agent 85 μM + pili peptide 85 μM; for Inhibition of PAO1 biofilm in presence of scrambled pili peptide: agent 85 μM + scrambled pili peptide 85 μM
Method in brief: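 PAO1 subculture (OD600 ~0.1) was grown statically in LB at 37° C for 24 h with or without DSHs (screened at 160 μM). Surface-attached biofilm was then stained with 0.1% crystal violet, solubilised in 30% AcOH and read at 600 nm. Values are the mean of 4 wells.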

wild type PAO1 = experiment: Swarming motility of wild type PAO1 on soft agar (antagonist assay); conditions: for Swarming of wild type PAO1: 110 μM in soft agar; for Effect on PAO1 swarming: concentration not given; for Concentration of activity reversal for swarming inhibition of PAO1 (transition concentration): soft agar
Method in brief: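 Wild-type PAO1 culture (OD600 ~0.4–0.6, 3 μl) spotted on M8 swarm agar with 0.2% glucose, 0.5% casamino acids, 1 mM MgSO4 and 0.5% agar. Plates incubated 12 h at 37 °C then 12 h at room temperature; swarm area measured by cutting and weighing printed plate images.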

[2] = 85 μM in soft agar (0.5%), 24 h

With `CCCCCCCCCCCCOCCOCCOCCOCCO` [C12EG4OH, tetra (ethylene glycol) monododecyl ether, reference compound] as the molecule, how does the “Reactivation of swarming motility of rhlA mutant” value [1] read?
The value was “do not reactivate the swarming motility; also recorded: did not promote or reactivate”.

What about the “Reactivation of swarming motility of rhlA mutant” value ([1]; listed as C12EG5OH) of the same molecule?
Its value is “did not incur any bioactivity”.

What about the “Anti-biofilm activity (biofilm inhibition)” value (PAO1 biofilm) of the same molecule?
The value was “did not incur any bioactivity”.

Which results are given for `CCCCCCCCCCCCOS(=O)(=O)[O-].[Na+]` [SDS, sodium dodecyl sulfate, reference compound]?
Reactivation of swarming motility of rhlA mutant ([1]; sulfate): do not reactivate the swarming motility; also recorded: did not incur any bioactivity; also recorded: did not promote or reactivate; Anti-biofilm activity (biofilm inhibition) (PAO1 biofilm): did not incur any bioactivity

`CC(C)CCCC(C)CCCC(C)CCO[C@H]1O[C@H](CO)[C@@H](O[C@@H]2O[C@H](CO)[C@@H](O)[C@H](O)[C@H]2O)[C@H](O)[C@H]1O` (stereo partly drawn) [SFαC (13), saturated farnesyl-α-cellobioside] was tested. Which “Swarming motility of rhlA mutant” value [1, 2] did it give?
Its value is “no apparent effect on rhlA”.

What about the “Swarming reactivation of rhlA mutant” value ([1]; 24 h) of the same molecule?
Its value is “incapable of reactivating the swarming”.

And the “Swarming motility of wild type PAO1” value (wild type PAO1; 85 μM in soft agar, 24 h)?
The value was “inhibited the swarming motility of wild type PAO1”.

And the “Swarming of wild type PAO1” value (wild type PAO1; 24 h)?
The value was “completely inhibited the swarming of wt PAO1”.

And the “Effect on PAO1 swarming” value (wild type PAO1)?
Its value is “inhibitors for PAO1 swarming motility”.

And the “Inhibition of PAO1 biofilm” value (PAO1 biofilm; 85 μM, agent alone)?
Its value is “about 70%”.

And the IC50 (PAO1 biofilm; Example 2, FIG. 18)?
The IC50 was about 32.3 µM.

And the IC50 (PAO1 biofilm; Example 4, FIG. 30)?
Its IC50 is about 32 µM.

And the “Inhibition of PAO1 biofilm in presence of pili peptide PAO(128-144)ox” value (PAO1 biofilm)?
The value was 30%.

What about the “Inhibition of PAO1 biofilm in presence of pili peptide PAO(128-144)ox” value (PAO1 biofilm; listed as 13: SFαC) of the same molecule?
The value was “exhibited no inhibition of PA biofilm”.

What about the “Inhibition of PAO1 biofilm in presence of scrambled pili peptide” value (PAO1 biofilm) of the same molecule?
Its value is 65%.

And the “Inhibition of PAO1 biofilm in presence of scrambled pili peptide” value (PAO1 biofilm; listed as 13: SFαC)?
Its value is “did not compromise the efficacy of the agent”.

What about the “Anti-biofilm activity (biofilm inhibition)” value (PAO1 biofilm) of the same molecule?
Its value is “potent PAO1 biofilm inhibitors”.

What does the source list for `CC(C)CCCC(C)CCCC(C)CCO[C@@H]1O[C@H](CO)[C@@H](O[C@@H]2O[C@H](CO)[C@@H](O)[C@H](O)[C@H]2O)[C@H](O)[C@H]1O` (stereo partly drawn) [SFβC (12), saturated famesyl-β-cellobioside]?
Swarming motility of rhlA mutant ([1]; 20 μM): did not activate the swarming motility; Swarming motility of rhlA mutant [1, 2]: no apparent effect on rhlA; Swarming reactivation of rhlA mutant ([1]; 24 h, listed as 12: SFbC): does not reactivate the swarming of rhlA mutant; Swarming reactivation of rhlA mutant ([1]; 24 h, listed as 12: SFβC): incapable of reactivating the swarming; Concentration that suppresses reactivation of rhlA swarming by DβC [1]: 20 µM; Concentration that suppresses reactivation of rhlA swarming by DβC ([1]; listed as SFβC): ≤ 20 µM; Concentration of activity reversal for swarming promotion of rhlA mutant (transition concentration) ([1]; soft agar): ~8 µM; Concentration range in which swarming of rhlA is reactivated ([1]; soft agar, 24 h): 5-12 W; Concentration of activity reversal for swarming promotion of rhlA mutant (transition concentration) ([1]; soft agar, listed as 12): 8 µM; Concentration up to which there is no interference with swarming reactivation of rhlA by DβC ([1]; with 40 μM DβC): up to 10 μM; Concentration exhibiting inhibition of PAO1 swarming (wild type PAO1): > 20 µM; Concentration exhibiting promotion of PAO1 swarming (wild type PAO1): < 10 µM; Swarm ring of wild type PAO1 as percent of PAO1 without DSHs (wild type PAO1; 20 μM): ~5%; Swarming motility of wild type PAO1 (wild type PAO1; 20 μM): did inhibit the swarming activity of wild type PAO1; Swarm ring area of wild type PAO1 (wild type PAO1; 20 μM, control 24 cm2): ~1.2 cm2; Swarming motility of wild type PAO1 (wild type PAO1; 20 μM, listed as 12): stronger inhibition than rhamnolipids; Swarming motility of wild type PAO1 (wild type PAO1; 85 μM in soft agar, 24 h): inhibited the swarming motility of wild type PAO1; Swarming of wild type PAO1 (wild type PAO1; 24 h, listed as 12: SFbC): inhabits the swarming of wt PAO1; Swarming of wild type PAO1 (wild type PAO1; 24 h, listed as 12: SFβC): completely inhibited the swarming of wt PAO1; Effect on PAO1 swarming (wild type PAO1): inhibitors for PAO1 swarming motility; Concentration of activity reversal for swarming inhibition of PAO1 (transition concentration) (wild type PAO1): ~10 to 20 µM; Concentration of activity reversal for swarming inhibition of PAO1 (transition concentration) (wild type PAO1; listed as 12): 10 to 20 µM; IC50 (PAO1 biofilm; Example 2, FIG. 18): 4.9 µM; IC50 (PAO1 biofilm; Example 4, FIG. 30): ~9.9 µM; Anti-biofilm activity (biofilm inhibition) (PAO1 biofilm): potent PAO1 biofilm inhibitors

`CC(C)CCCC(C)CCCC(C)CCO[C@@H]1O[C@H](CO)[C@@H](O[C@H]2O[C@H](CO)[C@@H](O)[C@H](O)[C@H]2O)[C@H](O)[C@H]1O` (stereo partly drawn) [SFβM (14), saturated farnesyl-β-maltoside] was tested. Which “Swarming area of rhlA” value ([1]; 10 μM, 24 h) did it give?
The value was about 14 cm2.

And the “Swarming motility of rhlA mutant” value [1, 2]?
Its value is “no apparent effect on rhlA”.

And the “Swarming reactivation of rhlA mutant” value ([1]; 24 h)?
Its value is “incapable of reactivating the swarming”.

What about the “Concentration of activity reversal for swarming promotion of rhlA mutant (transition concentration)” value ([1]; soft agar) of the same molecule?
The value was about 10 µM.

And the “Concentration of activity reversal for swarming promotion of rhlA mutant (transition concentration)” value ([1]; soft agar, listed as 14)?
The value was 10 µM.

And the “Concentration at which tendrils were induced in PAO1” value (wild type PAO1)?
Its value is about 7.5 µM.

And the “Swarming motility of wild type PAO1” value (wild type PAO1; 20 μM)?
Its value is “stronger inhibition than rhamnolipids”.

What about the “Swarming motility of wild type PAO1” value (wild type PAO1; 85 μM in soft agar, 24 h) of the same molecule?
Its value is “inhibited the swarming motility of wild type PAO1”.

What about the “Swarming of wild type PAO1” value (wild type PAO1; 24 h) of the same molecule?
The value was “completely inhibited the swarming of wt PAO1”.

And the “Concentration of activity reversal for swarming inhibition of PAO1 (transition concentration)” value (wild type PAO1)?
Its value is about 7.5 µM.

And the “Concentration of activity reversal for swarming inhibition of PAO1 (transition concentration)” value (wild type PAO1; listed as 14)?
Its value is 7.5 µM.

And the IC50 (PAO1 biofilm; Example 2, FIG. 18)?
Its IC50 is about 97.2 µM.

What about the IC50 (PAO1 biofilm; Example 4, FIG. 30) of the same molecule?
Its IC50 is about 102 µM.

And the “Anti-biofilm activity (biofilm inhibition)” value (PAO1 biofilm)?
The value was “potent PAO1 biofilm inhibitors”.
